Assay [1] relates to HCT8 and SW837 (KRAS-independent) xenografted tumors. Briefly: Subcutaneous xenografted tumors, KRAS-independent. The assay is classed as in vivo, NOD/SCID mice. Particulars: 15 mg/kg daily intraperitoneal. As for the experimental part: (C) TAK1 inhibition in mice with xenografted human tumors derived from the HCT8/SW837 (KRAS-independent) and SK-CO-1/SW620 (KRAS-dependent) cell lines. Cells expressing firefly luciferase were injected subcutaneously into the flanks of […]. Tumors are shown as imaged by IVIS detection of luminescence counts (in photons/sec) following 14 days of tumor growth followed by 6 days of treatment with either 15 mg/kg 5z-7-oxozeaenol or vehicle ([…] in arachis oil), IP delivery q.d. Quantitation of tumor volume (mm^3) is plotted on the right. Tumor volume data are represented as the mean of 4 tumors in 2 mice for each group+/−SEM.
To validate the efficacy of 5Z-7-oxozeaenol in vivo, subcutaneous xenografted tumors were generated in NOD/SCID mice using four representative KRAS mutant cell lines: HCT8 and SW837 (KRAS-independent), and SK-CO-1 and SW620 (KRAS-dependent). Human colorectal cancer tumor cells were trypsinized and resuspended as single cell suspensions at 3×10^7 cells per ml in PBS. 100 μL (3×10^6 cells total) of this suspension were injected into opposite left and right flanks of NOD/SCID mice. All mice were housed in a pathogen-free environment. Tumor size was monitored daily and once tumor volume had reached approximately 200 mm^3, treatment with 5Z-7-oxozeaenol was initiated (7 to 14 days post-implantation). Mice were injected daily with 15 mg/kg 5Z-7-oxozeaenol. […]

Assay [2] relates to OUMS-23 cells. Briefly: Cellular proliferation and viability, CRC cell line panel. It counts as cell-based, human. Particulars: KRAS WT, BRAF WT, 3 days post-treatment. How it is done: (§1) (A) IC50 values (μM) for effects on cellular proliferation and viability with the TAK1 kinase inhibitor 5z-7-oxozeaenol in a panel of colon cancer cell lines that have been genotyped as KRAS mutant (KRAS-independent—circles or KRAS-dependent—squares), BRAF mutant (triangles) or wild-type for both KRAS and BRAF (OTHER—diamonds). Effects on growth were measured 3 days post-treatment. Data are represented as the mean of 3 independent experiments and error bars indicate the median±interquartile range. *denotes p<0.00001; n.s.—not significant.
(§2) To further validate TAK1 as a candidate therapeutic target in this context, a potent and selective TAK1 kinase inhibitor, 5Z-7-oxozeaenol (Rawlins et al., 1999), was used. Sensitivity to 5Z-7-oxozeaenol was tested in a panel of 47 colon cancer cell lines with various genotypes (FIGS. 3A and 9A). KRAS and BRAF genotypes were either procured from the Sanger Institute's Catalog of Somatic Mutations (COSMIC) or determined by targeted resequencing (Table 2). KRAS mutation status was determined as described above; the same methods were used to determine the mutation states of BRAF. BRAF exon15 was sequenced with TCATAATGCTTGCTCTGATAGGA (forward; SEQ ID NO:3) and GGCCAAAAATTTAATCAGTGG (reverse; SEQ ID NO:4).

Assay [3] concerns SW620 cells. Described as above. To be noted: KRAS G12V (KRAS-dependent), BRAF WT, APC del, CTNNB1 WT, 3 days post-treatment. The assay is classed as cell-based, human. How it is done: as §1, §2
Assay [4] relates to HCC56 cells. The description is as above. The assay is classed as cell-based, human. To be noted: KRAS G12V, BRAF WT, 3 days post-treatment. How it is done: as §1, §2
Assay [5] relates to LS-174T cells. Described as above. It counts as cell-based, human. Particulars: KRAS G12D, BRAF WT, APC WT, CTNNB1 S45A, 3 days post-treatment. As for the experimental part:
as §1, §2

Assay [6] deals with CL-40 cells. The assay is described as above. It counts as cell-based, human. Particulars: KRAS G12D (KRAS-dependent), BRAF WT, 3 days post-treatment. How it is done:
as §1, §2

Assay [7] relates to Caco-2 cells. The description is as above. The assay is classed as cell-based, human. Particulars: KRAS WT, BRAF V600E, CTNNB1 WT, 3 days post-treatment. As for the experimental part: as §1, §2
The test system of assay [8] is C2BBe1 cells. Described as above. It counts as cell-based, human. To be noted: KRAS WT, BRAF WT, APC del, CTNNB1 WT, 3 days post-treatment. How it is done:
as §1, §2

Assay [9] concerns CL-34 cells. Described as above. The assay is classed as cell-based, human. Particulars: KRAS WT, BRAF V600E, 3 days post-treatment. As for the experimental part: as §1, §2
For assay [10], the system named is RKO cells. Described as above. The assay is classed as cell-based, human. To be noted: KRAS WT, BRAF V600E, APC del, CTNNB1 WT, 3 days post-treatment. As for the experimental part: as §1, §2
The test system of assay [11] is RCM-1 cells. The assay is described as above. The assay is classed as cell-based, human. To be noted: KRAS G12V (KRAS-dependent), BRAF WT, APC del, CTNNB1 WT, 3 days post-treatment. How it is done: as §1, §2
Assay [12] deals with COLO-678 cells. The assay is described as above. The assay is classed as cell-based, human. Particulars: KRAS G12D (KRAS-dependent), BRAF WT, APC del, CTNNB1 WT, 3 days post-treatment. As for the experimental part:
as §1, §2

Assay [13] concerns SW48 cells. Described as above. It counts as cell-based, human. Particulars: KRAS WT, BRAF WT, APC WT, CTNNB1 S33Y, 3 days post-treatment. As for the experimental part:
as §1, §2

Assay [14] deals with WiDR cells. The description is as above. The assay is classed as cell-based, human. Particulars: KRAS WT, BRAF V600E, APC del, CTNNB1 WT, 3 days post-treatment. As for the experimental part: as §1, §2
Assay [15] relates to HCT-15 cells. The description is as above. The assay is classed as cell-based, human. To be noted: KRAS G13D, BRAF WT, APC del, CTNNB1 WT, 3 days post-treatment. As for the experimental part: as §1, §2
Assay [16] concerns SW1417 cells. The description is as above. To be noted: KRAS WT, BRAF V600E, APC del, CTNNB1 WT, 3 days post-treatment. It counts as cell-based, human. As for the experimental part:
as §1, §2

For assay [17], the system named is HCT-8 cells. The assay is described as above. It counts as cell-based, human. To be noted: KRAS G13D, BRAF WT, APC del, CTNNB1 WT, 3 days post-treatment. How it is done: as §1, §2
Assay [18] concerns COLO-205 cells. The assay is described as above. The assay is classed as cell-based, human. To be noted: KRAS WT, BRAF V600E, APC del, CTNNB1 WT, 3 days post-treatment. How it is done:
as §1, §2

Assay [19] relates to T84 cells. The assay is described as above. The assay is classed as cell-based, human. Particulars: KRAS G13D, BRAF WT, APC del, CTNNB1 WT, 3 days post-treatment. As for the experimental part: as §1, §2
The test system of assay [20] is CL-11 cells. The description is as above. It counts as cell-based, human. Particulars: KRAS V14I (KRAS-dependent), BRAF WT, CTNNB1 WT, 3 days post-treatment. As for the experimental part:
as §1, §2

A word on the IC50: it is the concentration needed to halve the response being measured. The low end stands for higher potency, the high end for lower potency. As to `COc1cc(O)c2c(c1)/C=C/C[C@H](O)[C@H](O)C(=O)/C=C\C[C@H](C)OC2=O` [5Z-7-oxozeaenol], the “tumor response (imaging, tumor volume)” value in [1] was “no significant response”. The IC50 came to 48.4 µM in assay [2]; 0.093 µM in assay [3]; 2.34 µM in assay [4]; 6.23 µM in assay [5]; 0.482 µM in [6]; 1.44 µM in [7]. The IC50 was found to be 9.32 µM in [8]; 0.489 µM in assay [9]; 1.1 µM in assay [10]; 0.277 µM in assay [11]; 0.774 µM in assay [12]; 1.94 µM in assay [13]. For the same compound, the half-maximal inhibitory concentration (IC50) in assay [14] stood at 2.48 µM; in assay [15], 8.2 µM; in assay [16], 1.24 µM; in [17] it was 47.3 µM; in assay [18] it was 1.3 µM; in [19], 2.81 µM. In addition, half-maximal inhibition in assay [20] (IC50) required 1.16 µM.

For the origin of these results see patent publication US20140243403A1, “TREATING COLORECTAL, PANCREATIC, AND LUNG CANCER” (The General Hospital Corporation, priority 2011, published 2014).
